Measurements taken from patent publication US20080220080A1, “Multiparticulate Pharmaceutical form Comprising Pellets with a Substance Having a Modular Effect in Relation to Active Ingredient Release” (RÖHM GMBH, priority 2005, published 2008).
“Also recorded” adds a separate entry of the source.

Key:
[1] = active ingredient delivery in PhEur phosphate buffer of pH 6.8 in a USP dissolution tester (theophylline pellets); type: physicochemical; details: substance in pellet core under EUDRAGIT RS coating
[2] = in vitro activity of modulating substances in purified water and phosphate buffer pH 6.8; type: physicochemical; details: purified water vs phosphate buffer pH 6.8
From the text: In the human and animal gastrointestinal tract the concentration of ions may vary to a certain extent and thus may influence the activity of the modulating substances. For reproducible in-vivo results substances having a modulating effect, which are not or only a little influenced by varying ionic strength are preferred.

| SMILES | effect of the modulating substance on the rate of active ingredient delivery [1] | in vitro activity of the modulating substance in purified water compared with phosphate buffer pH 6.8 (Pharm. Eur.) [2] | effect of the modulating substance on the rate of active ingredient delivery ([1]; listed as Na acetate) | effect of the modulating substance on the rate of active ingredient delivery ([1]; listed as NaCl) | effect of the modulating substance on the rate of active ingredient delivery ([1]; listed as Na succinate) |
| --- | --- | --- | --- | --- | --- |
| O=C([O-])CC(O)(CC(=O)[O-])C(=O)[O-].[Na+].[Na+].[Na+] [Na citrate] | decrease the rate of active ingredient delivery |  |  |  |  |
| O=C(O)CC(O)(CC(=O)O)C(=O)O [citric acid] | accelerating effect; also recorded: increase the rate of active ingredient delivery | almost the same activity |  |  |  |
| CC(=O)[O-].[Na+] [sodium acetate] | accelerating effect |  | increase the rate of active ingredient delivery |  |  |
| [Cl-].[Na+] [sodium chloride] | reducing effect | almost the same activity |  | decrease the rate of active ingredient delivery |  |
| O=C([O-])CCC(=O)[O-].[Na+].[Na+] [sodium succinate] | accelerating effect | almost the same activity |  |  | increase the rate of active ingredient delivery |
